Molecular target: T1, ΔF508-CFTR (Homo sapiens, UniProt P13569, DEL508-508)
T1 construct: expressed in transfected cells
Assay: Membrane potential optical (FRET/VIPR) assay, identification of correction compounds
Type: cell-based
Settings: Table 3, assay not given; for Emax: read-out: % Activity / % Efficacy (relative efficacy)
Text: I) Membrane Potential Optical Methods for Assaying ΔF508-CFTR Modulation Properties of Compounds
These voltage sensitive assays are based on the change in fluorescence resonant energy transfer (FRET) between the membrane-soluble, voltage-sensitive dye, DiSBAC2(3), and a fluorescent phospholipid, CC2-DMPE, which is attached to the outer leaflet of the plasma membrane and acts as a FRET donor. Changes in membrane potential (Vm) cause the negatively charged DiSBAC2(3) to redistribute across the plasma membrane and the amount of energy transfer from CC2-DMPE changes accordingly. The changes in fluorescence emission were monitored using VIPR™ II, which is an integrated liquid handler and fluorescent detector designed to conduct cell-based screens in 96- or 384-well microtiter plates.
Identification of Correction Compounds
To identify small molecules that correct the trafficking defect associated with ΔF508-CFTR; a single-addition HTS assay format was developed. The cells were incubated in serum-free medium for 16 hrs at 37° C. in the presence or absence (negative control) of test compound. As a positive control, cells plated in 384-well plates were incubated for 16 hrs at 27° C. to “temperature-correct” ΔF508-CFTR. The cells were subsequently rinsed 3× with Krebs Ringers solution and loaded with the voltage-sensitive dyes. To activate ΔF508-CFTR, 10 μM forskolin and the CFTR potentiator, genistein (20 μM), were added along with Cl^− free medium to each well. The addition of Cl^− free medium promoted Cl^− efflux in response to ΔF508-CFTR activation and the resulting membrane depolarization was optically monitored using the FRET-based voltage-sensor dyes.
• Bath Solution #1: (in mM) NaCl 160, KCl 4.5, CaCl2 2, MgCl2 1, HEPES 10, pH 7.4 with NaOH. • Chloride-free bath solution: Chloride salts in Bath Solution #1 are substituted with gluconate salts. • CC2-DMPE: Prepared as a 10 mM stock solution in DMSO and stored at −20° C. • DiSBAC2(3): Prepared as a 10 mM stock in DMSO and stored at −20° C.
NIH3T3 mouse fibroblasts stably expressing ΔF508-CFTR are used for optical measurements of membrane potential. The cells are maintained at 37° C. in 5% CO2 and 90% humidity in Dulbecco's modified Eagle's medium supplemented with 2 mM glutamine, 10% fetal bovine serum, 1×NEAA, β-ME, 1×pen/strep, and 25 mM HEPES in 175 cm^2 culture flasks. For all optical assays, the cells were seeded at 30,000/well in 384-well matrigel-coated plates and cultured for 2 hrs at 37° C. before culturing at 27° C. for 24 hrs. for the potentiator assay.

T1 sequence (P13569 with tags, fused parts or gaps DEL508-508): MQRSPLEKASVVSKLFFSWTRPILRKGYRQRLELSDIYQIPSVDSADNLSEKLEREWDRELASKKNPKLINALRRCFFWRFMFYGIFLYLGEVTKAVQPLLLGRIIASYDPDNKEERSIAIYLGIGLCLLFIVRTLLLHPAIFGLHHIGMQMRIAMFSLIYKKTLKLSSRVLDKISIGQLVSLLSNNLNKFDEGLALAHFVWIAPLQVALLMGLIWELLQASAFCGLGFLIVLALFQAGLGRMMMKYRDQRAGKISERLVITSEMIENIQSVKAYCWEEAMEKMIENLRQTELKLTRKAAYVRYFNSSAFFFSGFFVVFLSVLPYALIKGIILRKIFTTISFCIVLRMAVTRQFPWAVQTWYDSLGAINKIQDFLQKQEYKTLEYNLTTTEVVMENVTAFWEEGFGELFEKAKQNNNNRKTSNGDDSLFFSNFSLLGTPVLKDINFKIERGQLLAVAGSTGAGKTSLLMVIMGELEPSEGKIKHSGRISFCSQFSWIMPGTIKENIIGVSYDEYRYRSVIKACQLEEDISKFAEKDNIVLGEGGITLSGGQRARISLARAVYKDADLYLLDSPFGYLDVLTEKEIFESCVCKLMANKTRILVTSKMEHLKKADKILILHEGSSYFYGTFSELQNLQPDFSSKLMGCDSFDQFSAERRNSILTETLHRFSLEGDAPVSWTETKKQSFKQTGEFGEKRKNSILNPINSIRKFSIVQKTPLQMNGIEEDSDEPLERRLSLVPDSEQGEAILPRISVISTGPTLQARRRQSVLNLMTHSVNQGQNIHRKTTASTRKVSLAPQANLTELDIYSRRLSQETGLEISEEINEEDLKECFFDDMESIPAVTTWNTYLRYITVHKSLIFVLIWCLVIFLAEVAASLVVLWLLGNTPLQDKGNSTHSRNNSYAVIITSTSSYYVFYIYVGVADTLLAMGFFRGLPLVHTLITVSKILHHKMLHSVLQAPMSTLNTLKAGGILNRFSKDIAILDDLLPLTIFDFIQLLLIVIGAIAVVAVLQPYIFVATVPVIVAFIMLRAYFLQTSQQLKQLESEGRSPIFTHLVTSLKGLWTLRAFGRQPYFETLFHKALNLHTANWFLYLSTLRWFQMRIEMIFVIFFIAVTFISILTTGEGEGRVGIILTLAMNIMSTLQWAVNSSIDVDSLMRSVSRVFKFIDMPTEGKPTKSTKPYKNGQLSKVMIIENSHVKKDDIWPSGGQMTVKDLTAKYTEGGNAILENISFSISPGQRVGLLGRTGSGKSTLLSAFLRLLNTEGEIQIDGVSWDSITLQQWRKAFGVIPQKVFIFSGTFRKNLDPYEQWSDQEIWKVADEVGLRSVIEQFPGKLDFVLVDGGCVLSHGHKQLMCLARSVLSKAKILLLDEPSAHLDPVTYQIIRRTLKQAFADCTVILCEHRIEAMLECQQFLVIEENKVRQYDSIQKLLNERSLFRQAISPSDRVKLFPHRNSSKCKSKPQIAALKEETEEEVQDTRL

EC50 | Emax | % Activity / % Efficacy (relative efficacy) | SMILES
10 to 25 µM | > 100% | – | O=C(Nc1ncc(C(c2ccccc2Cl)N2CC[C@@H](O)C2)s1)C1(c2ccccc2F)CC1 (stereo partly shown) [Example 448]
10 to 25 µM | 25 to 100% | – | O=C(Nc1ncc(Cc2ccccc2Cl)s1)C1(c2ccc(N3CCOCC3)cc2)CC1 [Example 313]
< 10 µM | > 100% | – | CCCN(CC1CC1)C(c1cnc(NC(=O)C2(c3ccc4c(c3)OCO4)CC2)s1)c1ccccc1Cl (stereo not shown) [Example 435]
< 10 µM | > 100% | – | NC(=O)C1CCCN(C(c2cnc(NC(=O)C3(c4ccc5c(c4)OCO5)CC3)s2)c2ccccc2Cl)C1 (stereo not shown) [Example 418]
< 10 µM | > 100% | – | O=C(Nc1ncc(Sc2cccc(Cl)c2)s1)C1(c2ccc3c(c2)OCO3)CC1 [Example 102]
< 10 µM | – | ++ (“++” means between 25% to 100%) | CS(=O)(=O)c1ccc(-c2csc(NC(=O)C3(c4ccc5c(c4)OCO5)CC3)n2)cc1 [Example 119]
< 10 µM | – | +++ (“+++” means>100%) | O=C(O)c1cccc(Sc2cnc(NC(=O)C3(c4ccc5c(c4)OCO5)CC3)s2)c1 [Example 106]
< 10 µM | – | +++ (“+++” means>100%) | COc1ccc(CC2(C(=O)Nc3ncc(Cc4ccccc4OC)s3)CC2)cc1 [Example 200]
< 10 µM | > 100% | – | O=C(Nc1ncc(C(c2ccccc2Cl)N2CCC(O)C2)s1)C1(c2ccc3c(c2)OCO3)CC1 (stereo not shown) [Example 311]
< 10 µM | 25 to 100% | – | CN1CCN(c2cccc(C3(C(=O)Nc4ncc(Cc5ccccc5Cl)s4)CC3)c2)CC1 [Example 314]
10 to 25 µM | 25 to 100% | – | CCN(CC)C(c1ccc(S(C)(=O)=O)cc1)c1cnc(NC(=O)C2(c3ccc4c(c3)OCO4)CC2)s1 (stereo not shown) [Example 376]
< 10 µM | – | +++ (“+++” means>100%) | COc1ccccc1CCc1cnc(NC(=O)C2(c3ccc4c(c3)OCO4)CC2)s1 [Example 197]
< 10 µM | 25 to 100% | – | CCOCCCNC(c1cnc(NC(=O)C2(c3ccc4c(c3)OCO4)CC2)s1)c1ccccc1Cl (stereo not shown) [Example 425]
< 10 µM | – | +++ (“+++” means>100%) | O=C(Nc1ncc(C(OCCCCN2CCC(O)CC2)c2ccccc2Cl)s1)C1(c2ccc3c(c2)OCO3)CC1 (stereo not shown) [Example 279]
< 10 µM | – | +++ (“+++” means>100%) | COc1ccc(C2(C(=O)Nc3ncc(Cc4ccncc4Cl)s3)CC2)cc1 [Example 262]
10 to 25 µM | > 100% | – | CC(C)(C)C(c1cnc(NC(=O)C2(c3ccc4c(c3)OCO4)CC2)s1)N1CCCCC1 (stereo not shown) [Example 383]
< 10 µM | > 100% | – | O=C(Nc1ncc(C(c2ccccc2)N2CCCC2)s1)C1(c2ccc3c(c2)OCO3)CC1 (stereo not shown) [Example 359]
< 10 µM | > 100% | – | O=C(Nc1ncc(C(c2cc(F)ccc2F)N2CCCC2)s1)C1(c2ccc3c(c2)OCO3)CC1 (stereo not shown) [Example 471]
< 10 µM | – | +++ (“+++” means>100%) | COc1ccc(C2(C(=O)Nc3nc(-c4cccc(OC)c4)cs3)CC2)cc1 [Example 122]
< 10 µM | – | +++ (“+++” means>100%) | COc1ccc(C2(C(=O)Nc3ncc(S(=O)(=O)c4ccccc4OC)s3)CC2)cc1 [Example 88]
< 10 µM | 25 to 100% | – | O=C(Nc1ncc(Cc2ccccc2Cl)s1)C1(c2ccc(O)cc2)CC1 [Example 317]
< 10 µM | > 100% | – | COc1ccccc1C(c1cnc(NC(=O)C2(c3ccc4c(c3)OCO4)CC2)s1)N1CCOCC1 (stereo not shown) [Example 399]
< 10 µM | > 100% | – | O=C(Nc1ncc(C(Cc2ccccc2Cl)N2CCCCC2)s1)C1(c2ccc3c(c2)OCO3)CC1 (stereo not shown) [Example 454]

EC50 | Emax | % Activity / % Efficacy (relative efficacy) | SMILES
< 10 µM | – | +++ (“+++” means>100%) | COc1cccc(F)c1Cc1cnc(NC(=O)C2(c3ccc4c(c3)OCO4)CC2)s1 [Example 196]
< 10 µM | – | +++ (“+++” means>100%) | CC(=O)c1sc(NC(=O)C2(c3ccc4c(c3)OCO4)CC2)nc1C [Example 107]
< 10 µM | > 100% | – | CC(C)C[C@H](CO)NC(c1cnc(NC(=O)C2(c3ccc4c(c3)OCO4)CC2)s1)c1ccccc1F (stereo partly shown) [Example 482]
< 10 µM | – | – | CCOc1ccccc1C(N[C@@H](CO)CC(C)C)c1cnc(NC(=O)C2(c3ccc4c(c3)OCO4)CC2)s1 (stereo partly shown) [Example 476]
< 10 µM | > 100% | – | O=C(Nc1ncc(C(c2ccccc2F)N2CC[C@@H](O)C2)s1)C1(c2ccc3c(c2)OCO3)CC1 (stereo partly shown) [Example 472]
< 10 µM | – | +++ (“+++” means>100%) | O=C(Nc1ncc(Cc2ccncc2Cl)s1)C1(c2ccc3c(c2)OCO3)CC1 [Example 265]
< 10 µM | – | +++ (“+++” means>100%) | COc1ccc(C2(C(=O)Nc3nc(-c4ccc(C)cc4)cs3)CC2)cc1 [Example 77]
– | > 100% | – | CCOc1ccccc1C(NC(CO)CC(C)C)c1cnc(NC(=O)C2(c3ccc4c(c3)OCO4)CC2)s1 (stereo not shown) [Example 476]
10 to 25 µM | > 100% | – | CCC(c1cnc(NC(=O)C2(c3ccc4c(c3)OCO4)CC2)s1)N1CCCCC1 (stereo not shown) [Example 403]
10 to 25 µM | > 100% | – | COCC1CCCN1C(c1cnc(NC(=O)C2(c3ccc4c(c3)OCO4)CC2)s1)c1ccccc1OC (stereo not shown) [Example 358]
< 10 µM | > 100% | – | COc1ccc(C(c2cnc(NC(=O)C3(c4ccc5c(c4)OCO5)CC3)s2)N2CCOCC2)cc1 (stereo not shown) [Example 400]
< 10 µM | 25 to 100% | – | O=C(Nc1ncc(C(NCCN2CCCC2)c2ccccc2Cl)s1)C1(c2ccc3c(c2)OCO3)CC1 (stereo not shown) [Example 406]
< 10 µM | > 100% | – | CN(C1CCCCC1)C(c1cnc(NC(=O)C2(c3ccc4c(c3)OCO4)CC2)s1)c1ccccc1Cl (stereo not shown) [Example 413]
10 to 25 µM | > 100% | – | COc1cccc(C(c2cnc(NC(=O)C3(c4ccc5c(c4)OCO5)CC3)s2)N(C)C)c1 (stereo not shown) [Example 366]
< 10 µM | – | +++ (“+++” means>100%) | COc1cccc(C2(C(=O)Nc3ncc(Cc4ccccc4C#N)s3)CC2)c1 [Example 69]
10 to 25 µM | 25 to 100% | – | CCC(c1cnc(NC(=O)C2(c3ccc4c(c3)OCO4)CC2)s1)N1CCOCC1 (stereo not shown) [Example 398]
< 10 µM | 25 to 100% | – | NC(c1cnc(NC(=O)C2(c3ccc4c(c3)OCO4)CC2)s1)c1ccccc1Cl (stereo not shown) [Example 475]
< 10 µM | > 100% | – | O=C(Nc1ncc(C(c2ccccc2)N2CCOCC2)s1)C1(c2ccc3c(c2)OCO3)CC1 (stereo not shown) [Example 369]
< 10 µM | > 100% | – | CC(C)C[C@H](CO)NC(c1cnc(NC(=O)C2(c3ccc4c(c3)OCO4)CC2)s1)c1cc(F)ccc1F (stereo partly shown) [Example 480]
10 to 25 µM | > 100% | – | COc1ccc(C(c2cnc(NC(=O)C3(c4ccc5c(c4)OCO5)CC3)s2)N2CC[C@@H](O)C2)cc1 (stereo partly shown) [Example 352]
< 10 µM | > 100% | – | CCC(c1ccccc1)c1nnc(NC(=O)C2(c3ccc4c(c3)OCO4)CC2)s1 (stereo not shown) [Example 301]
< 10 µM | – | ++ (“++” means between 25% to 100%) | O=C(Nc1ncc(C(c2ccccc2Cl)N2CCOCC2)s1)C1(c2ccc3c(c2)OCO3)CC1 (stereo not shown) [Example 203]

From patent publication US7977322B2 (Vertex Pharmaceuticals Incorporated, priority 2004, dated 2011)
